A short description of data set [1]: PET quantification of kidney activity of [^68Ga]Ga-PSMA-11 with NaCl or paraaminohippurate. As to conditions: for relative change of kidney uptake with 200 mg/mL paraaminohippurate coinjection in comparison to 0.9% NaCl: negative = reduction; for effect of paraaminohippurate coinjection on renal uptake (in words): compared with NaCl coinjection. How it is done:
PET experiments were conducted by CROmed Translational Research Center Ltd. Healthy adult male Wistar rats (3 animals per group) received an intraperitoneal priming dose of 1 mL of 0.9% NaCl, 1 mL of paraaminohippurate (200 mg/mL), or 1 mL of Arg-Lys (200 mg/mL), followed by 15–30 MBq of [^68Ga]Ga-PSMA-11 once intravenously in combination with 0.9% NaCl, paraaminohippurate, or Arg-Lys. PET examinations were conducted on an upgraded small-animal PET PRIMATE P4 scanner (Concorde Microsystems Inc.) at 5 min and 0.5, 1, 2, and 4 h after injection.

Details of data set [2]: species or system Wistar rats. As to conditions: male, Wistar, rat, in vivo. Here is the method: (§1) Experiments were conducted at the Helmholtz-Zentrum Dresden-Rossendorf, Institute of Radiopharmaceutical Cancer Research (approved by Landesdirektion Dresden, number DD24.1-5131/450/16, July 6, 2018). Groups of 5 male Wistar rats each (average body weight, 210 g) were randomized for coinjection of 0.9% NaCl, Arg-Lys solution (200 mg/mL), or paraaminohippurate solution (200 mg/mL). The animals received an intraperitoneal priming dose of 1.0 mL of 0.9% NaCl, 1.0 mL of Arg-Lys, or 1.0 mL of paraaminohippurate solution 10 min before radiotracer injection. The injection solutions for the biodistribution were prepared as mix of [^177Lu]Lu-DOTATOC solution added to 1.5 mL of NaCl, Arg-Lys, or paraaminohippurate solution. The average injected activity ± SD of [^177Lu]Lu-DOTATOC was 4.32 ± 0.51 MBq/kg in 4 animals, whereas 1 rat per group received 149 ± 15 MBq/kg.
As for paraaminohippurate, 500 mg paraaminohippurate were administered per rat; […] thereof via intravenous injection; this by itself already results in an initial plasma concentration far exceeding the saturating 800 mg/L stated in ([16]). […]
Animals were killed 5 and 60 min after radiotracer injection; organs and tissues of interest were extracted, and their mass and activity were determined. Activities were counted in an automatic γ-counter, which was cross-calibrated with a dose calibrator by 3 standard samples. […]

Data set [3] in a line: SPECT/CT quantification of kidney activity after coinjection of radiotracers with NaCl, Arg-Lys or paraaminohippurate. The note with it: for relative change of kidney uptake with 200 mg/mL paraaminohippurate coinjection in comparison to 0.9% NaCl: imaging, negative = reduction; for effect of paraaminohippurate coinjection on renal uptake (in words): compared with NaCl coinjection. Type of data set: in vivo, Wistar rats. How it is done: Approximately 10 min later, 50–60 MBq of the ^177Lu-radiolabeled radiopharmaceuticals were injected intravenously in combination with 0.5 mL of 0.9% NaCl, 0.5 mL of paraaminohippurate (200 mg/mL), or 0.5 mL of Arg-Lys (200 mg/mL). At 0.5, 1, 4, 8, and 24 h after injection of the ^177Lu-radiolabeled compounds, SPECT/CT imaging was conducted under isoflurane anesthesia, using Mediso nano-SPECT/CT with a Silver upgrade system (Mediso Kft). VivoQuant version 1.22 software (VivoQuant) was used to determine the volume of interest and to quantify the activity in the kidneys.

Details of data set [4]: method as in PMID 38637142. As to conditions: 12 patients treated with [^177Lu]Lu-DOTATOC; cited from earlier work.
The conditions of data set [5]: glomerular filtration and proximal tubular secretion; cited from earlier work.
A short description of data set [6]: Tolerability of paraaminohippurate coadministration. Type of data set: in vivo. As to conditions: rats, 200 mg/mL solution, intraperitoneal priming plus intravenous coinjection. Here is the method:
as §1, with “MBq/kg. […]” for “MBq/kg.”
Approximately 10 min later, 50–60 MBq of the ^177Lu-radiolabeled radiopharmaceuticals were injected intravenously in combination with 0.5 mL of 0.9% NaCl, 0.5 mL of paraaminohippurate (200 mg/mL), or 0.5 mL of Arg-Lys (200 mg/mL). […] VivoQuant version 1.22 software (VivoQuant) was used to determine the volume of interest and to quantify the activity in the kidneys.

Setting [7] is: NaCl coinjection, AUC within first hour after injection.
The mark [8] stands for this setting: PAH coinjection in comparison to NaCl.
Where [9] appears, read: PAH coinjection, AUC within first hour after injection.
Setting [10] is: independent of the coinjected compound.
The mark [11] stands for this setting: paraaminohippurate vs NaCl coinjection.
Where [12] appears, read: male, Wistar, rat, in vivo, %ID/g of kidney tissue.

Entries after “also recorded” stand apart in the source; their conditions may differ. Like-named read-outs stand apart in the source and are kept apart here.

For orientation: tissue uptake means the percentage of the injected dose found per gram of tissue.

As to `O=C([O-])CN(CCN(CC(=O)[O-])Cc1cc(CCC(=O)NCCCCCC(=O)NCCCC[C@H](NC(=O)N[C@@H](CCC(=O)O)C(=O)O)C(=O)O)ccc1[O-])Cc1cc(CCC(=O)O)ccc1[O-].[68Ga+3].[OH3+]` [[^68Ga]Ga-PSMA-11], the “relative change of kidney uptake with 200 mg/mL paraaminohippurate coinjection in comparison to 0.9% NaCl” value (shortened to “relative change of kidney uptake … to 0.9% NaCl”) in data set [1] (5 min) is given as −21%; in data set [1] (0.5 h), −23%; in data set [1] (1 h), −37%; in data set [1] (2 h) it was −5%; in data set [1] (4 h) it was “+15%”. For the same molecule, the “kidney AUC0–1 h, NaCl” value in data set [1] (setting [7]) is listed as 45.9 %ID/g*h. Also, the “kidney AUC0–1 h, Difference” value in data set [1] (setting [8]) is reported as −19%. Besides, the “kidney AUC0–1 h, PAH” value in data set [1] (setting [9]) is 37.1 %ID/g*h. Also, the “effect of paraaminohippurate coinjection on renal uptake (in words)” value (“effect of paraaminohippurate coinjection” for short) in data set [1] was “To a lesser extent, paraaminohippurate-mediated nephroprotection was observed”; in data set [1] (listed as PSMA-11), “reduced”. In addition, the “time of peak kidney activity after injection” value in data set [1] (setting [10]) came out at 0.5 h. In addition, the “reduction of kidney AUC within the first hour after injection” value in data set [1] (setting [11]) amounted to 19%.

Molecule `C[C@@H](O)[C@@H]1NC(=O)[C@H](CCCCN)NC(=O)[C@@H](Cc2c[nH]c3ccccc23)NC(=O)[C@H](Cc2ccc(O)cc2)NC(=O)[C@@H](NC(=O)[C@@H](Cc2ccccc2)NC(=O)CN2CCN(CC(=O)O)CCN(CC(=O)O)CCN(CC(=O)O)CC2)CSSC[C@@H](C(=O)N[C@H](CO)[C@@H](C)O)NC1=O` [[^177Lu]Lu-DOTATOC, metal not drawn] came in with a kidney uptake in data set [2] (5 min) of 2.93 ± 0.42 %ID/g. For the same molecule, the kidney uptake in data set [2] (1 h) is recorded as 2.16 ± 0.31 %ID/g. Besides, the “%ID/g of kidney tissue” value in data set [3] (male, Wistar, rat, in vivo, 0.5 h) is 13.3 (8.4) %ID/g. For the same molecule, the “%ID/g of kidney tissue” value in data set [3] (male, Wistar, rat, in vivo, 8 h) is 2.7 (0.0) %ID/g. In addition, in data set [3] (setting [12]), the tissue uptake at 1 h worked out at 12.2 %ID/g, the tissue uptake at 4 h worked out at 2.7 %ID/g and the tissue uptake at 24 h was 2.4 %ID/g. In data set [3] (rat, in vivo), the “kidney AUC0–24 h, Difference” value is −51%; the “kidney AUC0–24 h, NaCl” value turned out to be 87.0 %ID/g*h; the “kidney AUC0–24 h, PAH” value worked out at 43.0 %ID/g*h; the “time of peak / maximum kidney activity after injection” value is given as 0.5 h.

Consider `O=C([O-])CC[C@H](NC(=O)N[C@@H](CCCCNC(=O)CCCCCCC(=O)NCCCC[C@@H](NC(=O)[C@@H](Cc1ccccc1)NC(=O)[C@@H](Cc1ccc(O)c(I)c1)NC(=O)CC[C@H](C(=O)[O-])N1CCN(CC(=O)[O-])CCN(CC(=O)[O-])CCN(CC(=O)[O-])CC1)C(=O)[O-])C(=O)[O-])C(=O)[O-].[177Lu+3].[H+].[H+].[H+].[H+].[H+]` [[^177Lu]Lu-PSMA-I&T], for which the results for the “relative change of kidney uptake … to 0.9% NaCl” value in data set [3] (0.5 h), in data set [3] (1 h) and in data set [3] (4 h) were −18%, −22% and −61%, respectively. The “kidney AUC0–1 h, NaCl” value in data set [3] (setting [7]) came to 64.7 %ID/g*h. Moreover, the “kidney AUC0–1 h, Difference” value in data set [3] (setting [8]) is −34%. Besides, in data set [3] (setting [9]), the “kidney AUC0–1 h, PAH” value came to 42.8 %ID/g*h. Also, the “effect of paraaminohippurate coinjection” value in data set [3] is listed as “To a lesser extent, paraaminohippurate-mediated nephroprotection was observed”; in data set [3] (listed as PSMA-I&T), “reduced”. Further, the “time of peak / maximum kidney activity after injection” value in data set [3] (setting [10]) stood at 0.5 h. In addition, in data set [3] (setting [11]), the “reduction of kidney AUC within the first hour after injection” value is recorded as 34%.

`Nc1ccc(C(=O)NCC(=O)[O-])cc1.[Na+]` [paraaminohippurate, sodium paraaminohippurate]: in data set [4], the “kidney uptake of the radiolabeled compound versus Arg-Lys solution” value is reported as “comparable”. In addition, in data set [4], the tolerability in patients result was “well tolerated”. The “fraction filtered by the kidney from the plasma in a single pass-through” value in data set [5] is on record as “more than 90%”. The “tolerability / toxicity of coadministration” value in data set [6] is “well tolerated, and no immediate or delayed toxicity was observed”; in data set [6] (listed as Paraaminohippurate), “well tolerated, with no toxicity observed”.

On to [^177Lu]Lu-DOTATATE, for which the “relative change of kidney uptake … to 0.9% NaCl” value in data set [3] (0.5 h) was −80%; in data set [3] (1 h) it was −83%; in data set [3] (4 h), −56%; in data set [3] (8 h) it was −49%; in data set [3] (24 h), −46%. Further, the “kidney AUC0–24 h, NaCl” value in data set [3] (NaCl coinjection, AUC within 24 h after injection) turned out to be 113.7 %ID/g*h. In addition, the “kidney AUC0–24 h, Difference” value in data set [3] (setting [8]) is listed as −60%. Moreover, the “kidney AUC0–24 h, PAH” value in data set [3] (PAH coinjection, AUC within 24 h after injection) stood at 45.4 %ID/g*h. Moreover, in data set [3], the “effect of paraaminohippurate coinjection” value is “significantly lower; also recorded: markedly diminished; also recorded: significantly reduced”. Also, the “time of peak / maximum kidney activity after injection” value in data set [3] (setting [10]) is given as 0.5 h.

The record behind these values is PMC12051768, “Reduced Renal Uptake of Various Radiopharmaceuticals with Sodium Paraaminohippurate Coadministration in a Rat Model” (Journal of Nuclear Medicine, 2025).
